Test results from patent publication US10533015B1, “Opioid receptor antagonist prodrugs” (Nirsum Laboratories, Inc., priority 2019, dated 2020).
Read-outs that look alike come from different tables or passages of the source.

Columns and labels:
[1] = Plasma stability assay, rat plasma; assay type: in vitro ADME; settings: 10 μM, 37° C.
Description: Plasma stability determination of the test compounds in rat, dog, cynomolgus monkey and human plasma is performed using HPLC-MS. For rat, incubations are carried out in 96-well polypropylene plates in 5 aliquots of 70 μL each (one for each time point). […] Five time points are analyzed (0, 15, 120, 480 and 1440 min). For dog, monkey and human, test compounds (2 μM, final solvent concentration 1%) were also incubated at 37° C. and analyzed at five time points (0, 10, 30, 60 and 120 min). All incubations are performed in duplicates. The samples are analyzed by HPLC-MS. The percentage of parent compound remaining after incubation in plasma is determined.

[2] = Polymorph screening of solid state drug substances; settings: for Dry method and appearance: after stirring 50 °C 72 hours, dried solid; for XRPD results (Dried): dried solid after 50 °C 72 hours; for Visual observation 50° C. / Visual observation RT: target conc. 100 mg/ml
[3] = heating temp. 40 °C, obs. temp. 40 °C
[4] = heating temp. 60 °C, obs. temp. 25 °C

CCCCCCCCCCCCOC(=O)Oc1ccc2c3c1O[C@H]1C(=O)CC[C@@]4(O)C(C2)N(CC2CC2)CC[C@]314 [Compound 11, (4aS,7aR,12bS)-3-(cyclopropylmethyl)-4a-hydroxy-7-oxo-2,3,4,4a,5,6,7,7a-octahydro-1H-4,12-methanobenzofuro[3,2-e]isoquinolin-9-yl dodecyl carbonate]
Approximate Solubility (mg/mL) in Excipient: Cottonseed oil [3]: >407 mg/mL | Approximate Solubility (mg/mL) in Excipient: Cottonseed oil [4]: <51 mg/mL | Approximate Solubility (mg/mL) in Excipient: Ethanol [3]: >218 mg/mL | Approximate Solubility (mg/mL) in Excipient: Sesame oil [3]: >407 mg/mL | Approximate Solubility (mg/mL) in Excipient: Sesame oil [4]: <50 mg/mL | % remaining at time point ([1]; 0 min): 100% | % remaining at time point ([1]; 15 min): 0.7% | % remaining at time point ([1]; 120 min): 0.3% | % remaining at time point ([1]; 480 min): 0.2% | % remaining at time point ([1]; 1440 min): 0% | Dry method and appearance ([2]; Acetone): Evaporation/white powder | XRPD results (Dried) ([2]; Acetone): Pattern A | Visual observation 50° C. ([2]; Acetone): Clear | Visual observation RT ([2]; Acetone): Slurry | Dry method and appearance ([2]; EtOAc): Evaporation/white powder | XRPD results (Dried) ([2]; EtOAc): Pattern A | Visual observation 50° C. ([2]; EtOAc): Clear | Visual observation RT ([2]; EtOAc): Slurry | Dry method and appearance ([2]; Heptane): Evaporation/white powder | XRPD results (Dried) ([2]; Heptane): Pattern B | Visual observation 50° C. ([2]; Heptane): Clear | Visual observation RT ([2]; Heptane): Clear | Dry method and appearance ([2]; Isopropanol): Evaporation/white powder | XRPD results (Dried) ([2]; Isopropanol): Pattern A | Visual observation 50° C. ([2]; Isopropanol): Clear | Visual observation RT ([2]; Isopropanol): Slurry | Dry method and appearance ([2]; MTBE): Evaporation/white powder | XRPD results (Dried) ([2]; MTBE): Pattern A | Visual observation 50° C. ([2]; MTBE): Clear | Visual observation RT ([2]; MTBE): Clear

CCCCCCCCCCCCCCC(=O)Oc1ccc2c3c1O[C@H]1C(=O)CC[C@@]4(O)C(C2)N(CC2CC2)CC[C@]314 [Compound 58, (4aS,7aR,12bS)-3-(cyclopropylmethyl)-4a-hydroxy-7-oxo-2,3,4,4a,5,6,7,7a-octahydro-1H-4,12-methanobenzofuro[3,2-e]-isoquinolin-9-yl pentadecanoate]
Approximate Solubility (mg/mL) in Excipient: Cottonseed oil [4]: 101.8 to 203.6 mg/mL | Approximate Solubility (mg/mL) in Excipient: Sesame oil [4]: 99.4 to 198.8 mg/mL | % remaining at time point ([1]; 0 min): 100% | % remaining at time point ([1]; 15 min): 37% | % remaining at time point ([1]; 120 min): 20% | % remaining at time point ([1]; 480 min): 2.9% | % remaining at time point ([1]; 1440 min): 1.8%

C=C1CC[C@@]2(O)C3Cc4ccc(OC(=O)OCCCCCCCCCCCCCC)c5c4[C@@]2(CCN3CC2CC2)[C@H]1O5 [Compound 31, (4aS,7aS,12bS)-3-(cyclopropylmethyl)-4a-hydroxy-7-methylene-2,3,4,4a,5,6,7,7a-octahydro-1H-4,12-methanobenzofuro[3,2-e]isoquinolin-9-yl tetradecyl carbonate]
Approximate Solubility (mg/mL) in Excipient: Cottonseed oil [4]: >416.9 mg/mL | Approximate Solubility (mg/mL) in Excipient: Sesame oil [4]: >413.5 mg/mL | Equilibrium solubility (mg/mL) Water [3]: <0.001 mg/mL | % remaining at time point ([1]; 0 min): 100% | % remaining at time point ([1]; 15 min): 123.2% | % remaining at time point ([1]; 120 min): 73.5% | % remaining at time point ([1]; 480 min): 54.4% | % remaining at time point ([1]; 1440 min): 46.4% | Dry method and appearance ([2]; Acetone): Evaporation/white powder | XRPD results (Dried) ([2]; Acetone): Pattern A | Visual observation 50° C. ([2]; Acetone): Clear | Visual observation RT ([2]; Acetone): Slurry | Dry method and appearance ([2]; EtOAc): Evaporation/white powder | XRPD results (Dried) ([2]; EtOAc): Pattern A | Visual observation 50° C. ([2]; EtOAc): Clear | Visual observation RT ([2]; EtOAc): Clear | Dry method and appearance ([2]; Heptane): Evaporation/white powder | XRPD results (Dried) ([2]; Heptane): Pattern A | Visual observation 50° C. ([2]; Heptane): Clear | Visual observation RT ([2]; Heptane): Slurry | Dry method and appearance ([2]; Isopropanol): Evaporation/white powder | XRPD results (Dried) ([2]; Isopropanol): Pattern A | Visual observation 50° C. ([2]; Isopropanol): Clear | Visual observation RT ([2]; Isopropanol): Clear | Dry method and appearance ([2]; MTBE): Evaporation/white powder | XRPD results (Dried) ([2]; MTBE): Pattern A | Visual observation 50° C. ([2]; MTBE): Clear | Visual observation RT ([2]; MTBE): Slurry

C=C1CC[C@@]2(O)C3Cc4ccc(OC(=O)CCCCCCC/C=C\CCCCCCCC)c5c4[C@@]2(CCN3CC2CC2)[C@H]1O5 [Compound 36, (4aS,7aS,12bS)-3-(cyclopropylmethyl)-4a-hydroxy-7-methylene-2,3,4,4a,5,6,7,7a-octahydro-1H-4,12-methanobenzofuro[3,2-e]isoquinolin-9-yl oleate]
Approximate Solubility (mg/mL) in Excipient: Castor oil (Castor oil, heating temp. 40 °C, obs. temp. 40 °C): >217 mg/mL | Approximate Solubility (mg/mL) in Excipient: Cottonseed oil [3]: >418.7 mg/mL | Approximate Solubility (mg/mL) in Excipient: Cottonseed oil [4]: >407 mg/mL | Approximate Solubility (mg/mL) in Excipient: Ethanol [3]: 20 to 30 mg/mL | Approximate Solubility (mg/mL) in Excipient: Sesame oil [3]: >411.6 mg/mL | Approximate Solubility (mg/mL) in Excipient: Sesame oil [4]: >408 mg/mL | % remaining at time point ([1]; 0 min): 100% | % remaining at time point ([1]; 15 min): 74.4% | % remaining at time point ([1]; 120 min): 66.3% | % remaining at time point ([1]; 480 min): 39.8% | % remaining at time point ([1]; 1440 min): 19.1%

CCCCCCCCCCCCCCCCCCCCCC(=O)Oc1ccc2c3c1O[C@H]1C(=O)CC[C@@]4(O)C(C2)N(CC2CC2)CC[C@]314 [Compound 51, (4aS,7aR,12bS)-3-(cyclopropylmethyl)-4a-hydroxy-7-oxo-2,3,4,4a,5,6,7,7a-octahydro-1H-4,12-methanobenzofuro[3,2-e]isoquinolin-9-yl docosanoate]
Approximate Solubility (mg/mL) in Excipient: Cottonseed oil [4]: <50 mg/mL | Approximate Solubility (mg/mL) in Excipient: Sesame oil [4]: <46 mg/mL | Equilibrium solubility (mg/mL) Water [3]: <0.001 mg/mL | % remaining at time point ([1]; 0 min): 100% | % remaining at time point ([1]; 15 min): 107.4% | % remaining at time point ([1]; 120 min): 105.3% | % remaining at time point ([1]; 480 min): 88.2% | % remaining at time point ([1]; 1440 min): 92.7%

CCCCCCCCCCCCCCCCCC(=O)Oc1ccc2c3c1O[C@H]1C(=O)CC[C@@]4(O)C(C2)N(CC2CC2)CC[C@]314 [Compound 54, (4aS,7aR,12bS)-3-(cyclopropylmethyl)-4a-hydroxy-7-oxo-2,3,4,4a,5,6,7,7a-octahydro-1H-4,12-methanobenzofuro[3,2-e]isoquinolin-9-yl stearate]
Approximate Solubility (mg/mL) in Excipient: Cottonseed oil [4]: <51 mg/mL | Approximate Solubility (mg/mL) in Excipient: Sesame oil [4]: <50 mg/mL | Equilibrium solubility (mg/mL) Water [3]: <0.001 mg/mL | % remaining at time point ([1]; 0 min): 100% | % remaining at time point ([1]; 15 min): 98.8% | % remaining at time point ([1]; 120 min): 62.4% | % remaining at time point ([1]; 480 min): 45.6% | % remaining at time point ([1]; 1440 min): 19.4%

CCCCCCCCCCCCCC(=O)Oc1ccc2c3c1O[C@H]1C(=O)CC[C@@]4(O)C(C2)N(CC2CC2)CC[C@]314 [Compound 57, (4aS,7aR,12bS)-3-(cyclopropylmethyl)-4a-hydroxy-7-oxo-2,3,4,4a,5,6,7,7a-octahydro-1H-4,12-methanobenzofuro[3,2-e]isoquinolin-9-yl tetradecanoate]
Approximate Solubility (mg/mL) in Excipient: Cottonseed oil [4]: >423.7 mg/mL | Approximate Solubility (mg/mL) in Excipient: Sesame oil [4]: >417.3 mg/mL | Equilibrium solubility (mg/mL) Water [3]: <0.001 mg/mL | % remaining at time point ([1]; 0 min): 100% | % remaining at time point ([1]; 15 min): 10.5% | % remaining at time point ([1]; 120 min): 3.2% | % remaining at time point ([1]; 480 min): 1.2% | % remaining at time point ([1]; 1440 min): 0%

C=C1CC[C@@]2(O)C3Cc4ccc(OC(=O)OCCCCCCCCCCCCC)c5c4[C@@]2(CCN3CC2CC2)[C@H]1O5 [Compound 30, (4aS,7aS,12bS)-3-(cyclopropylmethyl)-4a-hydroxy-7-methylene-2,3,4,4a,5,6,7,7a-octahydro-1H-4,12-methanobenzofuro[3,2-e]isoquinolin-9-yl tridecyl carbonate]
Approximate Solubility (mg/mL) in Excipient: Cottonseed oil [4]: 252.5 to 404.06 mg/mL | Approximate Solubility (mg/mL) in Excipient: Sesame oil [4]: 252.55 to 398.6 mg/mL | Equilibrium solubility (mg/mL) Water [3]: <0.001 mg/mL | % remaining at time point ([1]; 0 min): 100% | % remaining at time point ([1]; 15 min): 65.7% | % remaining at time point ([1]; 120 min): 40.3% | % remaining at time point ([1]; 480 min): 30.5% | % remaining at time point ([1]; 1440 min): 22.2%
